The source of these data is patent US7009052B2, “Sulfonamide derivatives” (Warner Lambert Company LLC, priority 2003, dated 2006).

For this experiment, the target named is T1, androgen receptor (Homo sapiens, UniProt P10275).
T1 sequence (P10275 1-920 Q868H): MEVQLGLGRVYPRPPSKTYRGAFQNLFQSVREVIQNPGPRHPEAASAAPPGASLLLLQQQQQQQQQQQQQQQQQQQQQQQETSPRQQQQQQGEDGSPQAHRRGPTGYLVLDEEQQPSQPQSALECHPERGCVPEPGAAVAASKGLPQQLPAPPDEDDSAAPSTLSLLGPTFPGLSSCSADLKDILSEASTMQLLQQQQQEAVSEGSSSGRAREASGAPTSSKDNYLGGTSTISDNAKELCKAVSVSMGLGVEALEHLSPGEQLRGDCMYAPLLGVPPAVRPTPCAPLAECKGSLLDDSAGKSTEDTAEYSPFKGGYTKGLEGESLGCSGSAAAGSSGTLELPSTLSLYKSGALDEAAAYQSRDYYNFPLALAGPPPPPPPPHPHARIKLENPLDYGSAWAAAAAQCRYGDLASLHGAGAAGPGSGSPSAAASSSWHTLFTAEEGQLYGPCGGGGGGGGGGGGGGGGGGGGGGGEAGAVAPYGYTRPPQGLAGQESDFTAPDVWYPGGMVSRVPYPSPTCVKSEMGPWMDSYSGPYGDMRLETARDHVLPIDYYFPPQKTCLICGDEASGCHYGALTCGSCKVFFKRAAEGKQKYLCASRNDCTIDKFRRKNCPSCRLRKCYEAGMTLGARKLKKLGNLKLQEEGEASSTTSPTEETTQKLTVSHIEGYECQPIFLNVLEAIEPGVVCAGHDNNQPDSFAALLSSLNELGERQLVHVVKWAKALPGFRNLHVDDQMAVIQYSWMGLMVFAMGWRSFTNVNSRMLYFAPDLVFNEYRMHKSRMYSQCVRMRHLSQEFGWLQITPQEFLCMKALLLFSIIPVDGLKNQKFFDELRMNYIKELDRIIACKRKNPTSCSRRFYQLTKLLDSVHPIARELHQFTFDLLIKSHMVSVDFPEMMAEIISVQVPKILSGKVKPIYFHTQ
The experiment can be described thus: AR Antagonist Cell Assay (MMTV-luciferase reporter, DHT-induced). As to conditions: MDA-MB453-MMTV clone 54-19 cells, 100 pM DHT, 17 hr. Type of experiment: cell-based. The procedure, abridged:
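Stably transfected MDA-MB453 cells carrying an ARE-containing MMTV promoter–firefly luciferase reporter, pretreated 30 min with compound at 10 uM or 1 uM in 1% charcoal-treated serum medium. Then stimulated with 100 pM DHT for 17 hr at 37° C. and luminescence read; expressed as % inhibition of DHT-induced signal.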

`CCc1cccc(NS(=O)(=O)c2ccc3[nH]c(=O)cc(C(F)(F)F)c3c2)c1` [Example 88, 2-Oxo-4-trifluoromethyl-1,2-dihydroquinoline-6-sulfonic acid(3-ethylphenyl)amide] displayed an IC50 of 0.13 µM.
The figure for `CCc1ccc(NS(=O)(=O)c2ccc3[nH]c(=O)cc(C(F)(F)F)c3c2)cc1` [Example 89, 2-Oxo-4-trifluoromethyl-1,2-dihydroquinoline-6-sulfonic acid(4-ethylphenyl)amide] is 0.36 µM; for `Cc1cccc(C)c1NS(=O)(=O)c1ccc2[nH]c(=O)cc(C(F)(F)F)c2c1` [Example 90, 2-Oxo-4-trifluoromethyl-1,2-dihydroquinoline-6-sulfonic acid(2,6-dimethylphenyl)amide] it is greater than 10 µM.
On to `O=c1cc(C(F)(F)F)c2cc(S(=O)(=O)Nc3cccc(CO)c3)ccc2[nH]1` [Example 91, 2-Oxo-4-trifluoromethyl-1,2-dihydroquinoline-6-sulfonic acid(3-hydroxymethylphenyl)amide], for which 3.13 µM corresponded to half-maximal inhibition (IC50).
The result for `COc1ccccc1NS(=O)(=O)c1ccc2[nH]c(=O)cc(C(F)(F)F)c2c1` [Example 92, 2-Oxo-4-trifluoromethyl-1,2-dihydroquinoline-6-sulfonic acid(2-methoxyphenyl)amide] reads greater than 10 µM.
The figure for `O=c1cc(C(F)(F)F)c2cc(S(=O)(=O)Nc3ccc4ncccc4c3)ccc2[nH]1` [Example 93, 2-Oxo-4-trifluoromethyl-1,2-dihydroquinoline-6-sulfonic acidquinolin-6-ylamide] is 3.46 µM; for `O=c1cc(C(F)(F)F)c2cc(S(=O)(=O)Nc3ccc(F)cc3F)ccc2[nH]1` [Example 94, 2-Oxo-4-trifluoromethyl-1,2-dihydroquinoline-6-sulfonic acid(2,4-difluorophenyl)amide] it is greater than 10 µM.
The result for `N#CCc1ccc(NS(=O)(=O)c2ccc3[nH]c(=O)cc(C(F)(F)F)c3c2)cc1` [Example 95, 2-Oxo-4-trifluoromethyl-1,2-dihydroquinoline-6-sulfonic acid(4-cyanomethylphenyl)amide] reads 0.84 µM.
The compound `O=c1cc(C(F)(F)F)c2cc(S(=O)(=O)Nc3ccc4c(c3)CCC4)ccc2[nH]1` [Example 96, 2-Oxo-4-trifluoromethyl-1,2-dihydroquinoline-6-sulfonic acidindan-5-ylamide] had an IC50 of 0.14 µM.
In the case of `CC(C)c1ccc(NS(=O)(=O)c2ccc3[nH]c(=O)cc(C(F)(F)F)c3c2)cc1` [Example 97, 2-Oxo-4-trifluoromethyl-1,2-dihydroquinoline-6-sulfonic acid(4-isopropylphenyl)amide], the 50% inhibitory concentration (IC50) amounted to 0.2 µM.
With `O=c1cc(C(F)(F)F)c2cc(S(=O)(=O)Nc3ccc4c(c3)OCO4)ccc2[nH]1` [Example 98, 2-Oxo-4-trifluoromethyl-1,2-dihydroquinoline-6-sulfonic acidbenzo[1,3]dioxol-5-ylamide], the half-maximal inhibitory concentration (IC50) was greater than 10 µM.
The result for `Cc1ccc(-c2ccccc2)cc1NS(=O)(=O)c1ccc2[nH]c(=O)cc(C(F)(F)F)c2c1` [Example 99, 2-Oxo-4-trifluoromethyl-1,2-dihydroquinoline-6-sulfonic acid(4-methylbiphenyl-3-yl)amide] reads greater than 10 µM; that for `CC(O)c1cccc(NS(=O)(=O)c2ccc3[nH]c(=O)cc(C(F)(F)F)c3c2)c1` (stereo not shown) [Example 100, 2-Oxo-4-trifluoromethyl-1,2-dihydroquinoline-6-sulfonic acid[3-(1-hydroxyethyl)phenyl]amide], greater than 10 µM; that for `CSc1cccc(NS(=O)(=O)c2ccc3[nH]c(=O)cc(C(F)(F)F)c3c2)c1` [Example 101, 2-Oxo-4-trifluoromethyl-1,2-dihydroquinoline-6-sulfonic acid(3-methylsulfanylphenyl)amide], 0.36 µM.
`COc1ccc(OC)c(NS(=O)(=O)c2ccc3[nH]c(=O)cc(C(F)(F)F)c3c2)c1` [Example 102, 2-Oxo-4-trifluoromethyl-1,2-dihydroquinoline-6-sulfonic acid(2,5-dimethoxyphenyl)amide] registered an IC50 of 7.86 µM.
Turning to `COc1cc(NS(=O)(=O)c2ccc3[nH]c(=O)cc(C(F)(F)F)c3c2)cc(OC)c1` [Example 103, 2-Oxo-4-trifluoromethyl-1,2-dihydroquinoline-6-sulfonic acid(3,5-dimethoxyphenyl)amide], half-maximal inhibition (IC50) required 0.2 µM.
The figure for `Cn1nc(C(C)(C)C)cc1NS(=O)(=O)c1ccc2[nH]c(=O)cc(C(F)(F)F)c2c1` [Example 104, 2-Oxo-4-trifluoromethyl-1,2-dihydroquinoline-6-sulfonic acid(5-tert-butyl-2-methyl-2H-pyrazol-3-yl)amide] is greater than 10 µM; for `CC(C)Oc1cccc(NS(=O)(=O)c2ccc3[nH]c(=O)cc(C(F)(F)F)c3c2)c1` [Example 105, 2-Oxo-4-trifluoromethyl-1,2-dihydroquinoline-6-sulfonic acid(3-isopropoxyphenyl)amide] it is 0.45 µM.
In turn, `O=c1cc(C(F)(F)F)c2cc(S(=O)(=O)Nc3cccc(OC(F)F)c3)ccc2[nH]1` [Example 106, 2-Oxo-4-trifluoromethyl-1,2-dihydroquinoline-6-sulfonic acid(3-difluoromethoxyphenyl)amide] registered an IC50 of 0.26 µM.
For `Cc1cc2c(NS(=O)(=O)c3ccc4[nH]c(=O)cc(C(F)(F)F)c4c3)cccc2nn1` [Example 108, 2-Oxo-4-trifluoromethyl-1,2-dihydroquinoline-6-sulfonic acid(3-methylcinnolin-5-yl)amide], the IC50 was greater than 10 µM.
The result for `O=c1cc(C(F)(F)F)c2cc(S(=O)(=O)Nc3cccc(C(F)(F)F)c3)ccc2[nH]1` [Example 109, 2-Oxo-4-trifluoromethyl-1,2-dihydroquinoline-6-sulfonic acid(3-trifluoromethylphenyl)amide] reads 0.21 µM.
The figure for `O=c1cc(C(F)(F)F)c2cc(S(=O)(=O)Nc3ccccc3Br)ccc2[nH]1` [Example 110, 2-Oxo-4-trifluoromethyl-1,2-dihydroquinoline-6-sulfonic acid(2-bromophenyl)amide] is greater than 10 µM; for `Cc1cc(=O)oc2cc(NS(=O)(=O)c3ccc4[nH]c(=O)cc(C(F)(F)F)c4c3)ccc12` [Example 111, 2-Oxo-4-trifluoromethyl-1,2-dihydroquinoline-6-sulfonic acid(4-methyl-2-oxo-2H-chromen-7-yl)amide] it is greater than 10 µM.
Consider `O=c1cc(C(F)(F)F)c2cc(S(=O)(=O)Nc3cccc(OC(F)(F)F)c3)ccc2[nH]1` [Example 112, 2-Oxo-4-trifluoromethyl-1,2-dihydroquinoline-6-sulfonic acid(3-trifluoromethoxyphenyl)amide], for which the IC50 amounted to 0.12 µM.
The result for `O=c1cc(C(F)(F)F)c2cc(S(=O)(=O)Nc3ccc(CCO)cc3)ccc2[nH]1` [Example 113, 2-Oxo-4-trifluoromethyl-1,2-dihydroquinoline-6-sulfonic acid[4-(2-hydroxyethyl)phenyl]amide] reads greater than 10 µM; that for `O=c1cc(C(F)(F)F)c2cc(S(=O)(=O)Nc3cccc(OCc4ccccc4)c3)ccc2[nH]1` [Example 114, 2-Oxo-4-trifluoromethyl-1,2-dihydroquinoline-6-sulfonic acid(3-benzyloxyphenyl)amide], greater than 10 µM.
The result for `O=c1cc(C(F)(F)F)c2cc(S(=O)(=O)Nc3ccccc3Sc3ccccc3)ccc2[nH]1` [Example 115, 2-Oxo-4-trifluoromethyl-1,2-dihydroquinoline-6-sulfonic acid(2-phenylsulfanylphenyl)amide] reads 8.13 µM; that for `COc1cccc(NS(=O)(=O)c2ccc3[nH]c(=O)cc(C(F)(F)F)c3c2)c1` [Example 116, 2-Oxo-4-trifluoromethyl-1,2-dihydroquinoline-6-sulfonic acid(3-methoxyphenyl)amide], 0.34 µM.
The figure for `CC(C)NS(=O)(=O)c1ccc2[nH]c(=O)cc(C(F)(F)F)c2c1` [Example 117, 2-Oxo-4-trifluoromethyl-1,2-dihydroquinoline-6-sulfonic acidisopropylamide] is 2.34 µM; for `O=c1cc(C(F)(F)F)c2cc(S(=O)(=O)NCc3cccs3)ccc2[nH]1` [Example 118, 2-Oxo-4-trifluoromethyl-1,2-dihydroquinoline-6-sulfonic acid(thiophen-2-ylmethyl)amide] it is greater than 10 µM.
The compound `COCCNS(=O)(=O)c1ccc2[nH]c(=O)cc(C(F)(F)F)c2c1` [Example 119, 2-Oxo-4-trifluoromethyl-1,2-dihydroquinoline-6-sulfonic acid(2-methoxyethyl)amide] registered an IC50 of 4.69 µM.
